Experimental data from patent US20090099231A1, “3-Sulfonylamino-Pyrrolidine-2-One Derivatives as Factor Xa Inhibitors” (priority 2005, published 2009).
pKi: −log10 of the molar value. Where a name gives a salt, the structure may show the parent alone.

Experiments:
human plasma = assay: Measurement of Prothrombin Time (PT), time to clot formation in plasma; details: pooled plasma from 4 donors, test compound 0.03 to 100 uM, Thromboplastin C Plus
Protocol: Blood was collected into a sodium citrate solution (ratio 9:1) to give a final concentration of 0.38% citrate. Plasma was generated by centrifugation of citrated blood samples at 1200×g for 20 min at 4° C. and stored at −20° C. until use.
The PT test was performed using the BCS Coagulation Analyzer (Dade Behring). For assay, 50 ul of plasma containing test compound at concentrations ranging from 0.03 to 100 uM (made from a 100 uM stock containing 1% DMSO in plasma) was combined with 100 ul of Thromboplastin C Plus (Dade Behring). Upon addition of the reagents, absorbance at 405 nm was monitored and time to clot formation is determined (normal range for human plasma is 10.6-12.4 seconds).

human Factor Xa = human Factor Xa (Homo sapiens, UniProt P00742); assay: In vitro assay for inhibition of Factor Xa (fluorogenic assay, Rhodamine 110 bis-Cbz-glycylglycyl-L-arginine amide substrate); format: biochemical; details: for Factor Xa inhibitory activity: human Factor Xa 0.0003 U.ml-1, substrate 10 μM, 15 min preincubation, room temperature, pH 7.4; for pKi: Ki=IC50/(1+[Substrate]/Km), i.e. IC50 divided by 1.6, human Factor Xa fluorogenic assay
Chain of human Factor Xa (P00742 235-488 limits assumed): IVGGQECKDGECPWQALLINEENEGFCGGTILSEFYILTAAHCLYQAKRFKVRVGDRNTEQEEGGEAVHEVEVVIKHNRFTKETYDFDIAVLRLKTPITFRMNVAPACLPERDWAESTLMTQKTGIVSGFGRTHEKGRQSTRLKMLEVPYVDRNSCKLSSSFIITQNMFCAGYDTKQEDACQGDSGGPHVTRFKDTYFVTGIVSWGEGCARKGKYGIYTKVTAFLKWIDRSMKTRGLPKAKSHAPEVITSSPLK
Chain of human Factor Xa (P00742 41-179 partner limits assumed): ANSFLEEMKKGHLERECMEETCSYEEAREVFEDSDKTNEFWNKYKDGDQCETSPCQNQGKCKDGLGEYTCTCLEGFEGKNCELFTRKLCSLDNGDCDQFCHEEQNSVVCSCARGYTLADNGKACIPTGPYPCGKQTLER
Protocol: Compounds of the present invention were tested for their Factor Xa inhibitory activity as determined in vitro by their ability to inhibit human Factor Xa in a fluorogenic assay, using Rhodamine 110, bis-Cbz-glycylglycyl-L-arginine amide as the fluorogenic substrate. Compounds were diluted from a 10 mM stock solution in dimethylsulfoxide at appropriate concentrations. Assay was performed at room temperature using buffer consisting of: 50 mM Tris-HCl, 150 mM NaCl, 5 mM CaCl2, pH 7.4 containing human Factor Xa (final concentration of 0.0003 U.ml-1). Compound and enzyme were preincubated for 15 min prior to addition of the substrate (final concentration of 10 μM). The reaction was stopped after 3 hrs with the addition of H-D-Phe-Pro-Arg-Chloromethylketone. An LJL-Analyst fluorimeter was used to monitor fluorescence with 485 nm excitation/535 nm emission. To obtain IC50 values the data were analysed using ActivityBase® and XLfit®.
Ki=IC50/(1+[Substrate]/Km)
The Ki value for the above assay can be obtained by dividing the IC50 value by 1.6.

## Cl.O=C1[C@@H](NS(=O)(=O)/C=C/c2ccc(Cl)s2)CCN1c1cc2c(cc1F)CNCC2 [Example 22, (E)-2-(5-Chloro-2-thienyl)-N-[(3S)-1-(7-fluoro-1,2,3,4-tetrahydro-6-isoquinolinyl)-2-oxo-3-pyrrolidinyl]ethenesulfonamide hydrochloride]
Human plasma
  activity in prothrombin time (PT) test: exhibit activity
Human Factor Xa
  Factor Xa inhibitory activity: exhibit Factor Xa inhibitory activity

## Cl.O=C1[C@@H](NS(=O)(=O)c2ccc3c(Cl)c[nH]c3c2)CCN1c1cc2c(cc1F)CNCC2 [Example 23, 3-Chloro-N-[(3S)-1-(7-fluoro-1,2,3,4-tetrahydro-6-isoquinolinyl)-2-oxo-3-pyrrolidinyl]-1H-indole-6-sulfonamide hydrochloride]
Human plasma
  activity in prothrombin time (PT) test: exhibit activity
Human Factor Xa
  Factor Xa inhibitory activity: exhibit Factor Xa inhibitory activity

## Cl.O=C1[C@@H](NS(=O)(=O)c2ccc3cc(Cl)ccc3c2)CCN1c1cc2c(cc1Cl)CNCC2 [Example 24, 6-Chloro-N-[(3S)-1-(7-chloro-1,2,3,4-tetrahydro-6-isoquinolinyl)-2-oxo-3-pyrrolidinyl]-2-naphthalenesulfonamide hydrochloride]
Human plasma
  activity in prothrombin time (PT) test: exhibit activity
Human Factor Xa
  Factor Xa inhibitory activity: exhibit Factor Xa inhibitory activity

## Cl.O=C1[C@@H](NS(=O)(=O)/C=C/c2ccc(Cl)s2)CCN1c1cc2c(cc1Cl)CNCC2 [Example 25, (E)-N-[(3S)-1-(7-Chloro-1,2,3,4-tetrahydro-6-isoquinolinyl)-2-oxo-3-pyrrolidinyl]-2-(5-chloro-2-thienyl)ethenesulfonamide hydrochloride]
Human plasma
  activity in prothrombin time (PT) test: exhibit activity
Human Factor Xa
  Factor Xa inhibitory activity: exhibit Factor Xa inhibitory activity

## Cl.O=C1[C@@H](NS(=O)(=O)c2ccc3c(Cl)c[nH]c3c2)CCN1c1cc2c(cc1Cl)CNCC2 [Example 26, 3-Chloro-N-[(3S)-1-(7-chloro-1,2,3,4-tetrahydro-6-isoquinolinyl)-2-oxo-3-pyrrolidinyl]-1H-indole-6-sulfonamide hydrochloride]
Human plasma
  activity in prothrombin time (PT) test: exhibit activity
Human Factor Xa
  pKi: > 8.00
  Factor Xa inhibitory activity: exhibit Factor Xa inhibitory activity

## Cc1cc2c(cc1N1CC[C@H](NS(=O)(=O)c3ccc4cc(Cl)ccc4c3)C1=O)CCNC2.Cl [Example 27, 6-Chloro-N-[(3S)-1-(7-methyl-1,2,3,4-tetrahydro-6-isoquinolinyl)-2-oxo-3-pyrrolidinyl]-2-naphthalenesulfonamide hydrochloride]
Human plasma
  activity in prothrombin time (PT) test: exhibit activity
Human Factor Xa
  Factor Xa inhibitory activity: exhibit Factor Xa inhibitory activity

## Cc1cc2c(cc1N1CC[C@H](NS(=O)(=O)/C=C/c3ccc(Cl)s3)C1=O)CCNC2.Cl [Example 28, (E)-2-(5-Chloro-2-thienyl)-N-[(3S)-1-(7-methyl-1,2,3,4-tetrahydro-6-isoquinolinyl)-2-oxo-3-pyrrolidinyl]ethenesulfonamide hydrochloride]
Human plasma
  activity in prothrombin time (PT) test: exhibit activity
Human Factor Xa
  Factor Xa inhibitory activity: exhibit Factor Xa inhibitory activity

## Cc1cc2c(cc1N1CC[C@H](NS(=O)(=O)c3ccc4c(Cl)c[nH]c4c3)C1=O)CCNC2.Cl [Example 29, 3-Chloro-N-[(3S)-1-(7-methyl-1,2,3,4-tetrahydro-6-isoquinolinyl)-2-oxo-3-pyrrolidinyl]-1H-indole-6-sulfonamide hydrochloride]
Human plasma
  activity in prothrombin time (PT) test: exhibit activity
Human Factor Xa
  Factor Xa inhibitory activity: exhibit Factor Xa inhibitory activity

## CC(C)N1CCc2cc(N3CC[C@H](NS(=O)(=O)c4ccc5cc(Cl)ccc5c4)C3=O)ccc2C1 [Example 30, 6-Chloro-N-{(3S)-1-[2-(1-methylethyl)-1,2,3,4-tetrahydro-6-isoquinolinyl]-2-oxo-3-pyrrolidinyl}-2-naphthalenesulfonamide]
Human plasma
  activity in prothrombin time (PT) test: exhibit activity
Human Factor Xa
  pKi: > 8.00
  Factor Xa inhibitory activity: exhibit Factor Xa inhibitory activity

## CC1NCCc2cc(N3CC[C@H](NS(=O)(=O)c4ccc5cc(Cl)ccc5c4)C3=O)ccc21 (stereo partly drawn) [Example 31, 6-Chloro-N-[(3S)-1-(1-methyl-1,2,3,4-tetrahydro-6-isoquinolinyl)-2-oxo-3-pyrrolidinyl]-2-naphthalenesulfonamide hydrochloride]
Human plasma
  activity in prothrombin time (PT) test: exhibit activity
Human Factor Xa
  pKi: > 8.00
  Factor Xa inhibitory activity: exhibit Factor Xa inhibitory activity

## CC1NCCc2cc(N3CC[C@H](NS(=O)(=O)/C=C/c4ccc(Cl)s4)C3=O)ccc21 (stereo partly drawn) [Example 32, (E)-2-(5-Chloro-2-thienyl)-N-[(3S)-1-(1-methyl-1,2,3,4-tetrahydro-6-isoquinolinyl)-2-oxo-3-pyrrolidinyl]ethenesulfonamide hydrochloride]
Human plasma
  activity in prothrombin time (PT) test: exhibit activity
Human Factor Xa
  pKi: > 8.00
  Factor Xa inhibitory activity: exhibit Factor Xa inhibitory activity

## CC1Cc2cc(N3CC[C@H](NS(=O)(=O)/C=C/c4ccc(Cl)s4)C3=O)ccc2CN1 (stereo partly drawn) [Example 33, (E)-2-(5-Chloro-2-thienyl)-N-[(3S)-1-(3-methyl-1,2,3,4-tetrahydro-6-isoquinolinyl)-2-oxo-3-pyrrolidinyl]ethenesulfonamide hydrochloride]
Human plasma
  activity in prothrombin time (PT) test: exhibit activity
Human Factor Xa
  pKi: > 8.00
  Factor Xa inhibitory activity: exhibit Factor Xa inhibitory activity

## O=C1[C@@H](NS(=O)(=O)c2cc3cc(Cl)ccc3[nH]2)CCN1c1ccc2c(c1)CCNC2.O=CO [Example 36, 5-Chloro-N-[(3S)-2-oxo-1-(1,2,3,4-tetrahydro-6-isoquinolinyl)-3-pyrrolidinyl]-1H-indole-2-sulfonamide]
Human plasma
  activity in prothrombin time (PT) test: exhibit activity
Human Factor Xa
  pKi: > 8.00
  Factor Xa inhibitory activity: exhibit Factor Xa inhibitory activity

## CN1CCc2cc(N3CC[C@H](NS(=O)(=O)/C=C/c4ccc(Cl)cc4)C3=O)ccc2C1.O=CO [Example 37, (E)-2-(4-Chlorophenyl)-N-[(3S)-1-(2-methyl-1,2,3,4-tetrahydro-6-isoquinolinyl)-2-oxo-3-pyrrolidinyl]ethenesulfonamide formate]
Human plasma
  activity in prothrombin time (PT) test: exhibit activity
Human Factor Xa
  Factor Xa inhibitory activity: exhibit Factor Xa inhibitory activity

## CC1Cc2cc(N3CC[C@H](NS(=O)(=O)c4ccc5cc(Cl)ccc5c4)C3=O)ccc2CN1.O=CO (stereo partly drawn) [Example 38, 6-Chloro-N-[(3S)-1-(3-methyl-1,2,3,4-tetrahydro-6-isoquinolinyl)-2-oxo-3-pyrrolidinyl]-2-naphthalenesulfonamide formate]
Human plasma
  activity in prothrombin time (PT) test: exhibit activity
Human Factor Xa
  Factor Xa inhibitory activity: exhibit Factor Xa inhibitory activity
